Active and inactive are the calls of the source. No cut-off for these calls is given here.
Legend:
[1] = tested on: A2780; experiment: Antiproliferative activity against human A2780 cells assessed as inhibition of cell proliferation incubated for 72 hrs by MTT assay; format: functional, cell-based; details: A2780, 72 h
[2] = Toxicity in BALB/C nude mouse xenografted with human PA-1 cells assessed as pathological changes in liver at 75 to 150 mg/kg,po BID for 21 days by H&E staining based microscopic analysis; format: organism-based; details: in vivo, 504 h, dose 75-150 mg/kg, time 21 day
[3] = target: Histone-lysine N-methyltransferase EZH2 (Homo sapiens, UniProt Q15910); experiment: Inhibition of EZH2 methyltransferase activity in human PA-1 cells assessed as reduction in H3K27me3 level at 10 uM and measured upto 4 days by Western blot analysis; format: cell-based; details: time <= 4.0 day, TDE = time-dependent effect
[4] = tested on: PA-1; experiment: Antiproliferative activity against human PA-1 cells assessed as reduction in cell viability at 10 uM incubated for 3 days followed by compound washout and measured after 4 days by microscopy analysis; format: functional, cell-based; details: time 3.0 day
[5] = tested on: Mus musculus; experiment: In vivo inhibition of EZH2 in human PA-1 cells xenografted in BALB/C nude mouse assessed as reduction in H3K27me3 expression level at 75 to 150 mg/kg,po BID for 21 days by immunohistochemical analysis; format: functional, organism-based; details: dose 75-150 mg/kg, time 21.0 day
[6] = tested on: PA-1; experiment: Induction of apoptosis in human PA-1 cells assessed as viable cells at 5 uM incubated for 48 hrs by AnnexinV-FITC/PI staining based flow cytometry analysis (Rvb= 88.53%); format: functional; details: read-out: Activity
[7] = tested on: SK-BR-3; experiment: Antiproliferative activity against human SK-BR-3 cells assessed as inhibition of cell proliferation incubated for 72 hrs by MTT assay; format: functional, cell-based; details: SK-BR-3, 72 h
[8] = tested on: 4T1; experiment: Antiproliferative activity against mouse 4T1 cells assessed as inhibition of cell proliferation incubated for 72 hrs by MTT assay; format: functional, cell-based; details: 4T1, 72 h
[9] = target: Protein arginine N-methyltransferase 7 (Homo sapiens) (UniProt Q9NVM4); experiment: Inhibition of PRMT7 (unknown origin) at 1 to 10 uM by AlphaLlSA assay; details: dose 1-10 µM
[10] = Toxicity in BALB/C nude mouse xenografted with human PA-1 cells assessed as pathological changes in serum biochemical values at 75 to 150 mg/kg,po BID for 21 days; format: organism-based; details: in vivo, 504 h, dose 75-150 mg/kg, time 21 day
[11] = tested on: PA-1; experiment: Antiproliferative activity against human PA-1 cells assessed as inhibition of cell proliferation incubated for 72 hrs by MTT assay; format: functional, cell-based; details: PA-1, 72 h
[12] = Tmax in Sprague-Dawley rat at 5 mg/kg, iv and measured upto 24 hrs by LC-MS/MS analysis; format: ADME, organism-based; details: in vivo
[13] = tested on: PA-1; experiment: Induction of apoptosis in human PA-1 cells assessed as viable cells at 10 uM incubated for 48 hrs by AnnexinV-FITC/PI staining based flow cytometry analysis (Rvb= 88.53%); format: functional; details: read-out: Activity
[14] = tested on: PA-1; experiment: Induction of apoptosis in human PA-1 cells assessed as necrotic cells at 40 uM incubated for 48 hrs by AnnexinV-FITC/PI staining based flow cytometry analysis (Rvb= 1.48%); format: functional
[15] = tested on: PA-1; experiment: Induction of apoptosis in human PA-1 cells assessed as early apoptotic cells at 10 uM incubated for 48 hrs by AnnexinV-FITC/PI staining based flow cytometry analysis (Rvb= 6.89%); format: functional

Sequence of Histone-lysine N-methyltransferase EZH2 (Q15910 whole entry, looked up): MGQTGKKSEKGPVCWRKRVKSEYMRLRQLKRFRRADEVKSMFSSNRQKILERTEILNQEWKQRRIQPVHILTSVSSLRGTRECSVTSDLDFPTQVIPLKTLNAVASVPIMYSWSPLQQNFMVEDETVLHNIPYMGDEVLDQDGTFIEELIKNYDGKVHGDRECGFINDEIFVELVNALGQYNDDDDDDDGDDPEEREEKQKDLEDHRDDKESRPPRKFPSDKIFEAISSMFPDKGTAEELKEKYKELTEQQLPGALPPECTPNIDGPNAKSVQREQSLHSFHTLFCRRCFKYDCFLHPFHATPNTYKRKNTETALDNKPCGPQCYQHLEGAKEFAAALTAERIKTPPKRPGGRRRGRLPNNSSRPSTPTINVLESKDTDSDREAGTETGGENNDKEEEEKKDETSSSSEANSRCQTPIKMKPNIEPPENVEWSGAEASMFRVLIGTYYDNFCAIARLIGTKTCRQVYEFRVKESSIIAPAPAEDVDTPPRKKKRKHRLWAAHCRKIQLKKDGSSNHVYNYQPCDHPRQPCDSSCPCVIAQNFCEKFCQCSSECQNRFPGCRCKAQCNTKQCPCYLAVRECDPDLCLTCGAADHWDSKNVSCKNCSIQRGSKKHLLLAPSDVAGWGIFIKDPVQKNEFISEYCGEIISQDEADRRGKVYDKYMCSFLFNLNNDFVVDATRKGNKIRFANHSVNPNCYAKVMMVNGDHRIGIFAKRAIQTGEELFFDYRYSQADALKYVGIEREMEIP
Sequence of Protein arginine N-methyltransferase 7 (Homo sapiens) (Q9NVM4 whole entry): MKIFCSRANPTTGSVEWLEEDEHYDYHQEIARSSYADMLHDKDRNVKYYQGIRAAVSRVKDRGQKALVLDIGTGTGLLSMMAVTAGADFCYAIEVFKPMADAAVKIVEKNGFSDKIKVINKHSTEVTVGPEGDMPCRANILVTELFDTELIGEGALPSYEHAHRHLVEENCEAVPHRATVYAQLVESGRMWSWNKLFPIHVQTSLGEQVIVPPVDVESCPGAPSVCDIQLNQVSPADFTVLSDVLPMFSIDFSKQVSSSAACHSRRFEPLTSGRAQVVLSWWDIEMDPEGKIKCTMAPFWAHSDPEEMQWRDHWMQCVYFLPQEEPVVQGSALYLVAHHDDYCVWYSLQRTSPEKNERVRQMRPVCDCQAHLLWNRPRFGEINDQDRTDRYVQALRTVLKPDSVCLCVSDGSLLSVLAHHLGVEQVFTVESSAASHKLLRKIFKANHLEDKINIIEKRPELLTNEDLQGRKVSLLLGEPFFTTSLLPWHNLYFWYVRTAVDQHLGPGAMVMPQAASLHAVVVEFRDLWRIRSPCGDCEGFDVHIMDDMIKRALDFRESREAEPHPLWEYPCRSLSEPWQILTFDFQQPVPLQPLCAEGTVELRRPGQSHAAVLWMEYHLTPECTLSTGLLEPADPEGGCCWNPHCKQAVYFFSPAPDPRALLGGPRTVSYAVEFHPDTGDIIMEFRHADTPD

- IC50 [1]: 11.2 µM
- inhibition [3]: Tde
- IC50 [7]: 22.8 µM
- IC50 [8]: 24.5 µM
- inhibition [9]: inactive
- Tmax [12]: 4.8 min
SMILES: C=CC(=O)Nc1ccc(C)c(-c2cc(C(=O)NCc3c(C)cc(C)[nH]c3=O)c(C)c(N(CC)C3CCOCC3)c2)c1
- Activity [2]: Non-Toxic
- Activity [4]: Active
- inhibition [5]: Active
- viability at 5 µM [6]: 83.2%
- Activity [10]: Non-Toxic
- IC50 [11]: 10.1 µM
- viability at 10 µM [13]: 70.5%
- Activity [14]: 0.34%
- Activity [15]: 22.39%

From ChEMBL document CHEMBL5316326, “Discovery of a Novel Covalent EZH2 Inhibitor Based on Tazemetostat Scaffold for the Treatment of Ovarian Cancer” (J Med Chem, 2023)
